Measured values published in US8460932B2, “Method of treating a disorder by suicide gene therapy” (priority 1999, dated 2013).

Tested on: brains of rodents
Assay: Expression, distribution and longevity of transgene in brain after intrastriatal vector injection (immunohistochemistry)
Assay type: in vivo, Lewis rat
Settings: GCV 25 mg/kg i.p. twice daily for 7 days vs saline after RAd 128; 1 month to 1 year
Protocol: UK. […] Antibodies were diluted in 1% NHS in TBS.
Groups of animals were then perfused 1 month, 3 months, 5 months, or 12 months later. Animals were perfusion-fixed and brains were cut in serial sections.
To assess the effects of HSV-1 TK on the expression another transgene, lacZ, a combination of either RAd TK+RAd HPRT or RAd 35+RAd HPRT or RAd 35+RAd TK was injected into the mid striatum of 9 rats (3 rats per group). The total vector dose was 8×10^7 iu (i.e. 4×10^7 iu per vector).

## Nc1nc(O)c2ncn(COC(CO)CO)c2n1 [GCV, ganciclovir]
  Effect on the maintenance of HSV1-TK immunoreactivity in the rodent brain: no effect
